PubChem BioAssay AID2060611 (Molecular Pharmacology Branch, DTP, NCI, 2025)
pIC50: −log10 of the molar value.

Test system: 628569-122-R-J1-PDC complex spheroid viability
Assay: Anticancer human tumor 628569-122-R-J1-PDC patient-derived head and neck squamous carcinoma cell line growth inhibition [CLK]
Settings: for pIC50: curve of first compound; for viability, T/C: stronger effect = lower value
Procedure, shortened: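 Multi-cell-type spheroids combined patient-derived tumor cells with HUVEC endothelial cells and human mesenchymal stem cells. Paired agents were dosed in half-log steps down from about clinical Cmax, or from 10 microM where Cmax was unknown.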
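Further: spheroids exposed to agents for seven days before readout.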
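Wherever viability, T/C is given: 100% = DMSO vehicle control viability.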

CC1COCCN1c1cc(C2(S(C)(=N)=O)CC2)nc(-c2ccnc3[nH]ccc23)n1 (configuration not stated) + CNC(=O)c1ccc(Nc2nc(OC3CCCC3)c3c(-c4ccc5nc(C)oc5c4)c[nH]c3n2)c(OC)c1
pIC50 (second compound 0.0316 µM): 6.03
pIC50 (second compound 0.1 µM): 5.53
pIC50 (second compound 0.316 µM): 5.86
pIC50 (second compound 1 µM): > 7.50
pIC50 (second compound 3.16 µM): > 7.50
pIC50 (second compound 10 µM): > 7.50
viability, T/C (second compound 0.0316 µM, first compound 0.0316 µM): 103%
viability, T/C (second compound 0.0316 µM, first compound 0.1 µM): 100%
viability, T/C (second compound 0.0316 µM, first compound 0.316 µM): 67.5%
viability, T/C (second compound 0.0316 µM, first compound 1 µM): 51.4%
viability, T/C (second compound 0.0316 µM, first compound 3.16 µM): 45%
viability, T/C (second compound 0.0316 µM, first compound 10 µM): 35.3%
viability, T/C (second compound 0.1 µM, first compound 0.0316 µM): 66.2%
viability, T/C (second compound 0.1 µM, first compound 0.1 µM): 58.3%
viability, T/C (second compound 0.1 µM, first compound 0.316 µM): 56.1%
viability, T/C (second compound 0.1 µM, first compound 1 µM): 54.5%
viability, T/C (second compound 0.1 µM, first compound 3.16 µM): 54%
viability, T/C (second compound 0.1 µM, first compound 10 µM): 40%
viability, T/C (second compound 0.316 µM, first compound 0.0316 µM): 45%
viability, T/C (second compound 0.316 µM, first compound 0.1 µM): 64.8%
viability, T/C (second compound 0.316 µM, first compound 0.316 µM): 50.9%
viability, T/C (second compound 0.316 µM, first compound 1 µM): 52.3%
viability, T/C (second compound 0.316 µM, first compound 3.16 µM): 44.7%
viability, T/C (second compound 0.316 µM, first compound 10 µM): 35.6%
viability, T/C (second compound 1 µM, first compound 0.0316 µM): 45.1%
viability, T/C (second compound 1 µM, first compound 0.1 µM): 46.2%
viability, T/C (second compound 1 µM, first compound 0.316 µM): 40.4%
viability, T/C (second compound 1 µM, first compound 1 µM): 38.3%
viability, T/C (second compound 1 µM, first compound 3.16 µM): 41.8%
viability, T/C (second compound 1 µM, first compound 10 µM): 33.8%
viability, T/C (second compound 3.16 µM, first compound 0.0316 µM): 44.1%
viability, T/C (second compound 3.16 µM, first compound 0.1 µM): 55.3%
viability, T/C (second compound 3.16 µM, first compound 0.316 µM): 47.2%
viability, T/C (second compound 3.16 µM, first compound 1 µM): 37.7%
viability, T/C (second compound 3.16 µM, first compound 3.16 µM): 36.7%
viability, T/C (second compound 3.16 µM, first compound 10 µM): 32%
viability, T/C (second compound 10 µM, first compound 0.0316 µM): 44.2%
viability, T/C (second compound 10 µM, first compound 0.1 µM): 43.7%
viability, T/C (second compound 10 µM, first compound 0.316 µM): 39.7%
viability, T/C (second compound 10 µM, first compound 1 µM): 40.4%
viability, T/C (second compound 10 µM, first compound 3.16 µM): 39%
viability, T/C (second compound 10 µM, first compound 10 µM): 29.4%
